Experimental data reported in ChEMBL document CHEMBL5325393, “A mini-review on synthesis and antiviral activity of natural product oxetanocin A derivatives” (Bioorg Med Chem, 2022).
In brackets after ≈: the same amount, converted by molar mass.

Columns and labels:
[1] = system: Human alphaherpesvirus 2; assay: Antiviral activity against thymidine kinase deficient HSV-2 assessed as inhibition of viral replication by plaque reduction assay; format: functional, organism-based
[2] = system: Human alphaherpesvirus 1; assay: Antiviral activity against thymidine kinase positive HSV-1 E-377 infected in HFF cells assessed as reduction in viral replication incubated for 3 days by crystal violet staining based microplate reader analysis; format: functional, organism-based; conditions: Human alphaherpesvirus 1, E-377, HFF, 72 h
[3] = system: Human alphaherpesvirus 1; assay: Antiviral activity against thymidine kinase positive HSV-1 123 infected in HFF cells assessed as reduction in viral replication incubated for 3 days by crystal violet staining based microplate reader analysis; format: functional, organism-based; conditions: Human alphaherpesvirus 1, 123, HFF, 72 h
[4] = system: Human alphaherpesvirus 1; assay: Antiviral activity against thymidine kinase positive HSV-1 SC-16 infected in HFF cells assessed as reduction in viral replication incubated for 3 days by crystal violet staining based microplate reader analysis; format: functional, organism-based; conditions: Human alphaherpesvirus 1, SC-16, HFF, 72 h
[5] = system: Human alphaherpesvirus 1; assay: (§1) Antiviral activity against lethal systemic HSV-1 123 infected in po dosed Swiss mouse model assessed as increase in animal survival administered as single double strength loading dose at 7 hrs post-inoculation and single strength dose at 23, 31, 47, 55, 71, 79 hrs post-inoculation and monitored for 21 days; format: functional; conditions: time 21 day
[6] = system: Human alphaherpesvirus 1; assay: as §1, with “intracerebral” for “systemic”; format: functional; conditions: time 21 day
[7] = system: Human alphaherpesvirus 1; assay: Antiviral activity against HSV-1 assessed as inhibition of viral growth; format: functional, organism-based
[8] = system: Human alphaherpesvirus 2; assay: Antiviral activity against HSV-2 assessed as inhibition of viral growth; format: functional, organism-based
[9] = system: Human alphaherpesvirus 1; assay: Antiviral activity against HSV-1 KOS infected in African green monkey Vero cells assessed as reduction in virus induced cytopathogenicity by plaque reduction assay; format: functional, organism-based; conditions: Human alphaherpesvirus 1, KOS
[10] = system: Human alphaherpesvirus 2; assay: Antiviral activity against HSV-2 186 infected in African green monkey Vero cells assessed as reduction in virus induced cytopathogenicity by plaque reduction assay; format: functional, organism-based; conditions: Human alphaherpesvirus 2, 186, Vero
[11] = system: Cytomegalovirus; assay: Antiviral activity against CMV AD-169 infected in HEL cells assessed as reduction in virus plaque formation; format: functional, organism-based; conditions: Human betaherpesvirus 5, AD-169, HEL
[12] = system: Human immunodeficiency virus 1; assay: Antiviral activity against HIV-1 assessed as inhibition of viral replication; format: functional, organism-based
[13] = system: Human immunodeficiency virus 1; assay: Antiviral activity against HIV-1 HTLV-IIIB infected in human MT4 cells assessed as inhibition of viral replication incubated for 4 days by immunofluorescence assay; format: functional, organism-based; conditions: Human immunodeficiency virus 1, HTLV-IIIB, MT4, 96 h
[14] = system: Human betaherpesvirus 5; assay: Antiviral activity against HCMV AD169 infected in HELF cells by plaque reduction assay; format: functional, organism-based; conditions: Human betaherpesvirus 5, AD169, HELF
[15] = system: Human immunodeficiency virus; assay: Antiviral activity against HIV infected in human MT4 cells by plaque reduction assay; format: functional, organism-based; conditions: Human immunodeficiency virus 1, MT4
[16] = system: HUVEC; assay: Angiogenic activity against HUVEC cells assessed as relative area of tube formation at 100 uM incubated for 10 days by tube formation assay; format: functional, Homo sapiens; conditions: time 10 day
[17] = system: Human immunodeficiency virus 1; assay: Antiviral activity against HIV-1 III B infected in PBMC assessed as inhibition of viral growth; format: functional, organism-based; conditions: Human immunodeficiency virus 1, III B
[18] = system: Human immunodeficiency virus 2; assay: Antiviral activity against HIV-2 D194 infected in PBMC assessed as inhibition of viral growth; format: functional, organism-based; conditions: Human immunodeficiency virus 2, D194, PBMC
[19] = system: Human betaherpesvirus 5; assay: Antiviral activity against HCMV AD169 infected in HEL cells assessed as reduction in virus induced cytopathogenicity by plaque reduction assay; format: functional, organism-based; conditions: Human betaherpesvirus 5, AD169, HEL
[20] = system: Human immunodeficiency virus 1; assay: Antiviral activity against HIV-1 HTLV-IIIB infected in human MT4 cells assessed as reduction in virus induced cytopathogenicity by immunofluorescence assay; format: functional, organism-based; conditions: Human immunodeficiency virus 1, HTLV-IIIB
[21] = system: Hepatitis B virus; assay: Antiviral activity against HBV infected in human HepG2.2.15 cells assessed as reduction in virus induced cytopathogenicity by Southern blot analysis; format: functional, organism-based
[22] = system: Human alphaherpesvirus 1; assay: Potency index, ratio of acyclovir EC50 to test compound EC50 for antiviral activity against HSV-1 KOS infected in African green monkey Vero cells assessed as reduction in virus induced cytopathogenicity by plaque reduction assay; format: functional
[23] = system: Human alphaherpesvirus 2; assay: Potency index, ratio of acyclovir EC50 to test compound EC50 for antiviral activity against HSV-2 186 infected in African green monkey Vero cells assessed as reduction in virus induced cytopathogenicity by plaque reduction assay; format: functional
[24] = system: MT4; assay: Cytotoxicity against human MT4 cells assessed as inhibition of cell growth; format: functional
[25] = system: Human immunodeficiency virus; assay: Antiviral activity against HIV RF assessed as inhibition of viral growth; format: functional, organism-based; conditions: Human immunodeficiency virus 1, RF
[26] = system: Human immunodeficiency virus; assay: Antiviral activity against HIV assessed as inhibition of viral growth; format: functional, organism-based; conditions: Human immunodeficiency virus 1
[27] = system: Human immunodeficiency virus 1; assay: Antiviral activity against HIV-1 HTLV-IIIB infected in human MT4 cells assessed as inhibition of viral replication; format: functional, organism-based; conditions: Human immunodeficiency virus 1, HTLV-IIIB
[28] = system: Murid betaherpesvirus 1; assay: Antiviral activity against MCMV Smith infected in MEF cells assessed as reduction in plaque formation by plaque reduction assay; format: functional; conditions: Murid betaherpesvirus 1, Smith, read-out: ED50 (the source's name)
[29] = system: HUVEC; assay: Angiogenic activity against HUVEC cells assessed as relative area of tube formation at 100 uM incubated for 96 hrs by Alexa fluor 488 staining based analysis; format: functional, Homo sapiens

Molecule `Nc1nc2c(ncn2COCCO)c(=O)[nH]1` [ACYCLOVIR] has an IC50 [1] of 12000 nM, an EC50 [2] of 200 nM and an EC50 [3] of 200 nM. The EC50 [4] was 200 nM, the ED50 [5] was >500 mg/kg.day and the ED50 [6] was >500 mg/kg.day. It also gave an EC50 [7] of 0.32 µg/mL (≈ 1.42 µM), an EC50 [8] of 0.39 µg/mL (≈ 1.73 µM) and an EC50 [9] of 0.41 µg/mL (≈ 1.82 µM). It also gave an EC50 [10] of 0.18 µg/mL (≈ 0.799 µM) and an EC50 [11] of 40 µg/mL (≈ 178 µM).
For `Nc1nc2c(ncn2N2C[C@H](CO)[C@H]2CO)c(=O)[nH]1`, the EC50 [12] was 0.46 µg/mL (≈ 1.73 µM), the EC50 [7] was 5.36 µg/mL (≈ 20.1 µM) and the EC50 [8] was 6.32 µg/mL (≈ 23.7 µM).
Work on `Nc1nc(N)c2ncn([C@@H]3O[C@H](CO)[C@H]3CO)c2n1` yielded an EC50 [13] of 2200 nM and an IC50 [14] of 1000 nM.
Molecule `O=C(Nc1ncnc2c1ncn2[C@@H]1O[C@H](CO)[C@H]1O)c1ccccc1` has an IC50 [15] of 5.5 µg/mL (≈ 16.1 µM).
`COc1nc(N)c2ncn([C@@H]3C[C@H](CO)[C@H]3CO)c2n1` showed a Ratio [16] of 1.87.
In the case of `Nc1ncnc2c1ncn2[C@H]1C[C@@](F)(CO)C1`, the IC50 [17] is reported as 3900 nM and the IC50 [18] is reported as 1500 nM.
For `Nc1ncnc2c1ncn2[C@@H]1C[C@](F)(CO)[C@H]1CO`, the EC50 [9] was 2.72 µg/mL (≈ 10.2 µM), the EC50 [10] was 1.33 µg/mL (≈ 4.98 µM) and the EC50 [19] was 0.18 µg/mL (≈ 0.673 µM). For the same molecule, the EC50 [20] was 3.73 µg/mL (≈ 14 µM), the EC50 [21] was 0.41 µg/mL (≈ 1.53 µM) and the “Ratio EC50” value [22] was 7. For the same molecule, the “Ratio EC50” value [23] was 7.
Molecule `O=c1[nH]cnc2c1ncn2[C@@H]1O[C@H](CO)[C@H]1CO` has an EC50 [13] of 2200 nM, a CC50 [24] of 330000 nM and an IC50 [14] of 18000 nM.
In the case of `[N-]=[N+]=N[C@H]1[C@H](n2cnc3c(N)ncnc32)O[C@@H]1CO`, the IC50 [25] is reported as 6 µg/mL (≈ 22.9 µM).
In the case of `Nc1ncnc2c1ncn2[C@@H]1O[C@H](CO)[C@@H]1O`, the IC50 [15] is reported as 0.54 µg/mL (≈ 2.28 µM).
`Nc1ncnc2c1ncn2[C@H]1C[C@@H](CO)C1` was tested, and the EC50 [26] was 800 nM.
Work on `Nc1nc(F)nc2c1ncn2[C@@H]1O[C@H](CO)[C@H]1CO` yielded an IC50 [27] of 16 nM and an IC50 [1] of 3900 nM.
`O=c1[nH]c(=O)c2ncn([C@@H]3O[C@H](CO)[C@H]3CO)c2[nH]1` was tested, and the EC50 [13] was > 100000 nM and the IC50 [14] was > 50000 nM.
`Nc1nc2c(ncn2COC(CO)CO)c(=O)[nH]1` [GANCICLOVIR] was tested, and the EC50 [28] was 1 µg/mL (≈ 3.92 µM) and the EC50 [19] was 0.71 µg/mL (≈ 2.78 µM).
In the case of `Nc1nc(Cl)nc2c1ncn2[C@@H]1C[C@@H](CO)[C@H]1CO`, the Ratio [16] is reported as 3.43.
`Nc1nc(Br)nc2c1ncn2[C@@H]1C[C@H](CO)[C@H]1CO` was tested, and the Ratio [29] was 2.1.
`Cc1cn([C@H]2C[C@H](N=[N+]=[N-])[C@@H](CO)O2)c(=O)[nH]c1=O` [ZIDOVUDINE] was tested, and the EC50 [12] was 0.003 µg/mL (≈ 0.0112 µM).
